From patent US6506913B2, “Dimethylfurancarboxyanilide derivatives” (Sankyo Company, Limited, priority 1994, dated 2003)

Legend:
Format in all cases: cell-based
[1] = tested on: Tyromyces palustris; test: Minimum inhibitory concentration by the agar dilution method; conditions: potato dextrose agar, 25° C., 5 days
Description: (§1) Assay of minimum inhibitory concentration by the agar dilution method.
(§2) According to the agar dilution method, on sterilized media (potato dextrose agar medium; potato extract powder 0.4%, glucose 2%, agar 1.5%) prepared to contain certain concentrations of a test sample, flora (about 4 mm in diameter) of wood rotting fungi, Coriolus versicolor and Tyromyces palustris, which has been cultured previously on the same kind of medium, were inoculated.
(§3) Whether there is any potentiation or not has been described in Applied Microbiology 9, 538-541 (1961) by F. C. Kull et al. The assay was carried out according to the method usually employed.

[2] = tested on: Coriolus versicolor; test: as above; conditions: potato dextrose agar, 25° C., 5 days
Description: as §1, §2, §3

[3] = tested on: Serpula lacrymans; test: Wood preservation test JIS A-9201 (1991): impregnated Sugi sapwood, weathered, forcedly decayed for 12 weeks; conditions: weathering 10 cycles, 20° C., mean of 9 samples
Experimental: (1) According to the test method for wood preservation described in the Japan Industrial Standards [JIS A-9201 (1991)], each of the test compounds was dissolved to a defined concentration in methanol. The solution was impregnated under a reduced pressure into a Sugi (Japanese cedar) sapwood (2×2×1) cm and then air-dried. Weathering test was repeated 10 times in which one cycle of the treatment was stirring in water for 8 hours, and then heating for 16 hours at 60° C. The test material was placed on the flora of Serpula lacrymans which had been previously grown on a quartz sand medium (malt extract 2%, glucose 1%, peptone 0.3% and yeast 0.2%), and forcedly decayed at 20° C. for 12 weeks. From the difference between the dry weight of the test material before the test and that after test, the degree of decrease in weight was obtained. […] The test was carried out by use of 9 samples for each condition, and the values shown in Table 2 are the mean values calculated from 9 samples.

[4] = tested on: Tyromyces palustris; test: Wood preservative efficacy on impregnated Sugi sapwood: hyphal growth and maximum crushing strength; set-up: key: +: No hyphal growth was observed on the test material, and no difference was found in the maximum crushing strength from the healthy wood sample.; ±: A little hyphal growth was observed on the test material, or a little decrease was found in the maximum crushing strength.; −: Hyphal growth was observed on the test material, or clear decrease was found in the maximum crushing strength; conditions: 0.1 w/v % methanol solution impregnated; weathering twice; 26° C., 3 weeks
Experimental: (§4) Weathering test was repeated twice in which one cycle of the treatment was washing (about 2 liter per minute supply) with water for 5 hours, and then heating for 19 hours at 60° C. After dry air sterilization, the test samples were prepared. The test materials were placed on the flora of Coriolus versicolor which is a lignin-decomposing fungus, and of Tryomyces palustris which is a cellulose-decomposing fungus, and both of which are designated fungal species for assay of wood preservating effect. Both fungi had been previously grown on an agar medium (malt extract 2%, glucose 1% and peptone 0.5%). After the wood samples were forcedly deteriorated at 26° C. for 3 weeks, the effectiveness was determined from the degree of hyphal growth on the test material and the presence or absence of lowered maximum crushing strength. […] The wood preventive efficacy was judged by the following criteria. +: No hyphal growth was observed on the test material, and no difference was found in the maximum crushing strength from the healthy wood sample. ±: A little hyphal growth was observed on the test material, or a little decrease was found in the maximum crushing strength. −: Hyphal growth was observed on the test material, or clear decrease was found in the maximum crushing strength.

[5] = tested on: Coriolus versicolor; test: as above; set-up: key: +: No hyphal growth was observed on the test material, and no difference was found in the maximum crushing strength from the healthy wood sample.; ±: A little hyphal growth was observed on the test material, or a little decrease was found in the maximum crushing strength.; −: Hyphal growth was observed on the test material, or clear decrease was found in the maximum crushing strength; conditions: 0.1 w/v % methanol solution impregnated; weathering twice; 26° C., 3 weeks
Experimental: as §4

[6] = impregnant concentration 0.005 % in methanol
[7] = impregnant concentration 0.01 % in methanol

## CCCCNC(=O)OCC#CI [B]
[1]
  MIC (ppm), single agent: 2.5 ppm
[2]
  MIC (ppm), single agent: 25 ppm

## Clc1ccc(OCOCC#CI)cc1 [Control compound 1, 4-Chlorophenyl-3-iodopropargylformal, reference compound]
[1]
  MIC (ppm), single agent: 2 ppm
[2]
  MIC (ppm), single agent: 6 ppm
[3]; [6]
  Mean weight decrease by decay (%): 18.6%
[3]; [7]
  Mean weight decrease by decay (%): 9.7%

## CCOC(=O)OCC(I)=C(Br)I [Control compound 2, 3-Bromo-2,3-diiodo-2-propenylethylcarbonate, reference compound]
[1]
  MIC (ppm), single agent: 25 ppm
[2]
  MIC (ppm), single agent: 15 ppm
[4]
  Wood preventive efficacy, Tyromyces palustris: +
[5]
  Wood preventive efficacy, Coriolus versicolor: +

## CC(=O)Nc1cccc(NC(=O)c2cc(C)oc2C)c1 [Example 1, 2,5-Dimethylfuran-3-carboxy(3-acetylaminoanilide)]
[4]
  Wood preventive efficacy, Tyromyces palustris: −
[5]
  Wood preventive efficacy, Coriolus versicolor: ±

## CNC(=O)c1cccc(NC(=O)c2cc(C)oc2C)c1 [Example 2, 2.5-Dimethylfuran-3-carboxy[3-(N-methylcarbamoyl)anilide]]
[4]
  Wood preventive efficacy, Tyromyces palustris: −
[5]
  Wood preventive efficacy, Coriolus versicolor: −

## Cc1cc(C(=O)Nc2cccc(C(=O)N3CCCCC3)c2)c(C)o1 [Example 3, 2,5-Dimethylfuran-3-carboxy[3-(1-piperidylcarbonyl)anilide]]
[4]
  Wood preventive efficacy, Tyromyces palustris: −
[5]
  Wood preventive efficacy, Coriolus versicolor: −

## Cc1cc(C(=O)Nc2cccc(C(=O)Nc3ccccc3)c2)c(C)o1 [Example 4, 2.5-Dimethylfuran-3-carboxyl[3-(N-phenylcarbamoyl)anilide]]
[4]
  Wood preventive efficacy, Tyromyces palustris: −
[5]
  Wood preventive efficacy, Coriolus versicolor: −

## Cc1cc(C(=O)Nc2cccc(C(=O)OC(C)(C)C)c2)c(C)o1 [Example 5, 2,5-Dimethylfuran-3-carboxy(3-tert-butoxycarbonylanilide)]
[4]
  Wood preventive efficacy, Tyromyces palustris: −
[5]
  Wood preventive efficacy, Coriolus versicolor: −

## COC(=O)c1cccc(NC(=O)c2cc(C)oc2C)c1 [Example 6, 2,5-Dimethylfuran-3-carboxy(3-methoxycarbonylanilide)]
[4]
  Wood preventive efficacy, Tyromyces palustris: +
[5]
  Wood preventive efficacy, Coriolus versicolor: +

## Cc1cc(C(=O)Nc2cccc(C(=O)c3ccccc3)c2)c(C)o1 [Example 7, 2,5-Dimethylfuran-3-carboxy(3-benzoylanilide)]
[4]
  Wood preventive efficacy, Tyromyces palustris: −
[5]
  Wood preventive efficacy, Coriolus versicolor: +

## Cc1cc(C(=O)Nc2cccc(NC(=O)c3ccccc3)c2)c(C)o1 [Example 8, 2,5-Dimethylfuran-3-carboxy(3-benzoylaminoanilide)]
[4]
  Wood preventive efficacy, Tyromyces palustris: −
[5]
  Wood preventive efficacy, Coriolus versicolor: ±

## CCCCC(=O)Nc1cccc(NC(=O)c2cc(C)oc2C)c1 [Example 9, 2,5-Dimethylfuran-3-carboxy(3-valerylaminoanilide)]
[4]
  Wood preventive efficacy, Tyromyces palustris: −
[5]
  Wood preventive efficacy, Coriolus versicolor: −

## Cc1cc(C(=O)Nc2cccc(NC(=O)C3CCCCC3)c2)c(C)o1 [Example 10, 2,5-Dimethylfuran-3-carboxy(3-cyclohexylcarbonylaminoanilide)]
[4]
  Wood preventive efficacy, Tyromyces palustris: −
[5]
  Wood preventive efficacy, Coriolus versicolor: +

## COCc1cccc(NC(=O)c2cc(C)oc2C)c1 [Example 11, 2,5-Dimethylfuran-3-carboxy(3-methoxymethylanilide)]
[4]
  Wood preventive efficacy, Tyromyces palustris: ±
[5]
  Wood preventive efficacy, Coriolus versicolor: +

## CCOCc1cccc(NC(=O)c2cc(C)oc2C)c1 [Example 12, 2,5-Dimethylfuran-3-carboxy(3-ethoxymethylanilide)]
[4]
  Wood preventive efficacy, Tyromyces palustris: ±
[5]
  Wood preventive efficacy, Coriolus versicolor: ±

## Cc1cc(C(=O)Nc2cccc(COC(C)C)c2)c(C)o1 [Example 13, 2,5-Dimethylfuran-3-carboxy(3-isopropyloxymethylanilide)]
[4]
  Wood preventive efficacy, Tyromyces palustris: +
[5]
  Wood preventive efficacy, Coriolus versicolor: +

## COc1ccc(Cc2cccc(NC(=O)c3cc(C)oc3C)c2)cc1 [Example 14, 2,5-Dimethylfuran-3-carboxy[3-(4-methoxybenzyl)anilide]]
[4]
  Wood preventive efficacy, Tyromyces palustris: +
[5]
  Wood preventive efficacy, Coriolus versicolor: +

## COC(=O)C=Cc1cccc(NC(=O)c2cc(C)oc2C)c1 [Example 15, 2,5-Dimethylfuran-3-carboxy[3-(2-methoxycarbonylvinyl)anilide]]
[4]
  Wood preventive efficacy, Tyromyces palustris: −
[5]
  Wood preventive efficacy, Coriolus versicolor: +

## CCc1cccc(NC(=O)c2cc(C)oc2C)c1 [Example 20, 2,5-Dimethylfuran-3-carboxy(3-ethylanilide)]
[1]
  MIC (ppm), single agent: 200 ppm
[2]
  MIC (ppm), single agent: 2.5 ppm
[3]; [6]
  Mean weight decrease by decay (%): 0.1%
[3]; [7]
  Mean weight decrease by decay (%): 0%
[4]
  Wood preventive efficacy, Tyromyces palustris: +
[5]
  Wood preventive efficacy, Coriolus versicolor: +

## Cc1cc(C(=O)Nc2cccc(C(C)C)c2)c(C)o1 [Example 21, 2,5-Dimethylfuran-3-carboxy(3-isopropylanilide)]
[1]
  MIC (ppm), single agent: 200 ppm
[2]
  MIC (ppm), single agent: 10.0 ppm
[3]; [6]
  Mean weight decrease by decay (%): 0%
[3]; [7]
  Mean weight decrease by decay (%): 0%
[4]
  Wood preventive efficacy, Tyromyces palustris: +
[5]
  Wood preventive efficacy, Coriolus versicolor: +

## CCCCCCc1cccc(NC(=O)c2cc(C)oc2C)c1 [Example 23, 2,5-Dimethylfuran-3-carboxy(3-hexylanilide)]
[4]
  Wood preventive efficacy, Tyromyces palustris: +
[5]
  Wood preventive efficacy, Coriolus versicolor: +

## CCCCc1cccc(NC(=O)c2cc(C)oc2C)c1 [Example 24, 2,5-Dimethylfuran-3-carboxy(3-butylanilide)]
[4]
  Wood preventive efficacy, Tyromyces palustris: +
[5]
  Wood preventive efficacy, Coriolus versicolor: +

## CCC(C)c1cccc(NC(=O)c2cc(C)oc2C)c1 (stereo not drawn) [Example 25, 2,5-Dimethylfuran-3-carboxy(3-sec-butylanilide)]
[4]
  Wood preventive efficacy, Tyromyces palustris: +
[5]
  Wood preventive efficacy, Coriolus versicolor: +

## CCCCCc1cccc(NC(=O)c2cc(C)oc2C)c1 [Example 26, 2,5-Dimethylfuran-3-carboxy(3-pentylanilide)]
[4]
  Wood preventive efficacy, Tyromyces palustris: +
[5]
  Wood preventive efficacy, Coriolus versicolor: +
